Assay results: the supplement of paper PMC10307832

Key:
Test in all cases: relative viability (nuclei count vs DMSO), 5 days (fraction); higher = more cells survive
[1] = test system: NCI-H460
Summary of the method: (§1)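 Lung cancer cell lines, seeded in 1536-well plates, were treated the following day by pin tool with a single drug or with five library-drug doses (not always all listed) in √10 steps on top of a fixed anchor-drug dose. Cells were fixed and nuclei stained in one step after 5 days, and nuclei were counted. Relative viability is the nuclei count for treated wells divided by that for vehicle wells, reported as medians of duplicate plates.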

[2] = test system: NCI-H1734
Summary of the method: as §1

[3] = test system: NCI-H3122
Summary of the method: as §1

[4] = test system: NCI-H838
Summary of the method: as §1

[5] = test system: NCI-H2347
Summary of the method: as §1

[6] = test system: NCI-H650
Summary of the method: as §1

[7] = test system: NCI-H520
Summary of the method: as §1

[8] = test system: NCI-H1944
Summary of the method: as §1

[9] = test system: NCI-H596
Summary of the method: as §1

[10] = test system: EKVX
Summary of the method: as §1

[11] = test system: NCI-H441
Summary of the method: as §1

[12] = test system: H3255
Summary of the method: as §1

[13] = test system: SW 1573
Summary of the method: as §1

[14] = test system: LK-2
Summary of the method: as §1

[15] = test system: NCI-H1755
Summary of the method: as §1

[16] = test system: NCI-H2085
Summary of the method: as §1

[17] = test system: NCI-H358
Summary of the method: as §1

[18] = test system: NCI-H1355
Summary of the method: as §1

[19] = test system: NCI-H2228
Summary of the method: as §1

[20] = test system: A-427
Summary of the method: as §1

[21] = test system: NCI-H1666
Summary of the method: as §1

[22] = test system: NCI-H322M
Summary of the method: as §1

**Q.** `CCCCCCCCCCCC1=C(O)C(=O)C=C(O)C1=O` [Embelin] + C[C@]1(O)C[C@@H](c2nc(-c3ccc4ccc(-c5ccccc5)nc4c3)c3c(N)nccn32)C1 [Linsitinib] (partner 1 µM) was tested. Which relative viability ([1]; first compound 0.08 µM) did it give?
**A.** 0.808

**Q.** What about the relative viability ([1]; first compound 0.8 µM) of the same compound?
**A.** 0.988

**Q.** And the relative viability ([1]; first compound 2.53 µM)?
**A.** 1.18

**Q.** And the relative viability ([1]; first compound 8 µM)?
**A.** 0.69

**Q.** And the relative viability ([2]; first compound 0.08 µM)?
**A.** 0.832

**Q.** And the relative viability ([2]; first compound 0.8 µM)?
**A.** 1.05

**Q.** What about the relative viability ([2]; first compound 2.53 µM) of the same compound?
**A.** 0.927

**Q.** What about the relative viability ([2]; first compound 8 µM) of the same compound?
**A.** 0.876

**Q.** And the relative viability ([3]; first compound 0.08 µM)?
**A.** 1.01

**Q.** What about the relative viability ([3]; first compound 0.8 µM) of the same compound?
**A.** 0.946

**Q.** And the relative viability ([3]; first compound 2.53 µM)?
**A.** 1.01

**Q.** What about the relative viability ([3]; first compound 8 µM) of the same compound?
**A.** 1.12

**Q.** What about the relative viability ([4]; first compound 0.08 µM) of the same compound?
**A.** 1.06

**Q.** And the relative viability ([4]; first compound 0.8 µM)?
**A.** 1.13

**Q.** What about the relative viability ([4]; first compound 2.53 µM) of the same compound?
**A.** 1.03

**Q.** And the relative viability ([4]; first compound 8 µM)?
**A.** 1.07

**Q.** And the relative viability ([5]; first compound 0.08 µM)?
**A.** 0.968

**Q.** What about the relative viability ([5]; first compound 0.8 µM) of the same compound?
**A.** 1.03

**Q.** And the relative viability ([5]; first compound 2.53 µM)?
**A.** 1.09

**Q.** What about the relative viability ([5]; first compound 8 µM) of the same compound?
**A.** 0.958

**Q.** What about the relative viability ([6]; first compound 0.08 µM) of the same compound?
**A.** 0.812

**Q.** And the relative viability ([6]; first compound 0.8 µM)?
**A.** 1.41

**Q.** And the relative viability ([6]; first compound 2.53 µM)?
**A.** 0.653

**Q.** And the relative viability ([6]; first compound 8 µM)?
**A.** 0.716

**Q.** And the relative viability ([7]; first compound 0.08 µM)?
**A.** 1

**Q.** And the relative viability ([7]; first compound 0.8 µM)?
**A.** 0.849

**Q.** And the relative viability ([7]; first compound 2.53 µM)?
**A.** 0.869

**Q.** What about the relative viability ([7]; first compound 8 µM) of the same compound?
**A.** 1.03

**Q.** What about the relative viability ([8]; first compound 0.08 µM) of the same compound?
**A.** 1.15

**Q.** What about the relative viability ([8]; first compound 0.8 µM) of the same compound?
**A.** 1.39

**Q.** What about the relative viability ([8]; first compound 2.53 µM) of the same compound?
**A.** 1.17

**Q.** What about the relative viability ([8]; first compound 8 µM) of the same compound?
**A.** 1.12

**Q.** What about the relative viability ([9]; first compound 0.08 µM) of the same compound?
**A.** 1.11

**Q.** And the relative viability ([9]; first compound 0.8 µM)?
**A.** 1.14

**Q.** What about the relative viability ([9]; first compound 2.53 µM) of the same compound?
**A.** 1.25

**Q.** And the relative viability ([9]; first compound 8 µM)?
**A.** 1.05

**Q.** What about the relative viability ([10]; first compound 0.08 µM) of the same compound?
**A.** 0.967

**Q.** What about the relative viability ([10]; first compound 0.8 µM) of the same compound?
**A.** 1.09

**Q.** And the relative viability ([10]; first compound 2.53 µM)?
**A.** 1.2

**Q.** And the relative viability ([10]; first compound 8 µM)?
**A.** 1.06

**Q.** What about the relative viability ([11]; first compound 0.08 µM) of the same compound?
**A.** 0.598

**Q.** And the relative viability ([11]; first compound 0.8 µM)?
**A.** 0.559

**Q.** What about the relative viability ([11]; first compound 2.53 µM) of the same compound?
**A.** 0.539

**Q.** What about the relative viability ([11]; first compound 8 µM) of the same compound?
**A.** 0.622

**Q.** What about the relative viability ([12]; first compound 0.08 µM) of the same compound?
**A.** 1

**Q.** What about the relative viability ([12]; first compound 0.8 µM) of the same compound?
**A.** 1.23

**Q.** And the relative viability ([12]; first compound 2.53 µM)?
**A.** 0.931

**Q.** And the relative viability ([12]; first compound 8 µM)?
**A.** 0.922

**Q.** And the relative viability ([13]; first compound 0.08 µM)?
**A.** 0.842

**Q.** What about the relative viability ([13]; first compound 0.8 µM) of the same compound?
**A.** 0.924

**Q.** What about the relative viability ([13]; first compound 2.53 µM) of the same compound?
**A.** 0.75

**Q.** What about the relative viability ([13]; first compound 8 µM) of the same compound?
**A.** 0.832

**Q.** What about the relative viability ([14]; first compound 0.08 µM) of the same compound?
**A.** 0.685

**Q.** What about the relative viability ([14]; first compound 0.8 µM) of the same compound?
**A.** 0.525

**Q.** What about the relative viability ([14]; first compound 2.53 µM) of the same compound?
**A.** 0.805

**Q.** And the relative viability ([14]; first compound 8 µM)?
**A.** 0.547

**Q.** And the relative viability ([15]; first compound 0.08 µM)?
**A.** 1.03

**Q.** And the relative viability ([15]; first compound 0.8 µM)?
**A.** 1.06

**Q.** And the relative viability ([15]; first compound 2.53 µM)?
**A.** 1.07

**Q.** What about the relative viability ([15]; first compound 8 µM) of the same compound?
**A.** 0.98

**Q.** And the relative viability ([16]; first compound 0.08 µM)?
**A.** 0.909

**Q.** And the relative viability ([16]; first compound 0.8 µM)?
**A.** 1.02

**Q.** And the relative viability ([16]; first compound 2.53 µM)?
**A.** 0.972

**Q.** What about the relative viability ([16]; first compound 8 µM) of the same compound?
**A.** 1.04

**Q.** And the relative viability ([17]; first compound 0.08 µM)?
**A.** 0.691

**Q.** What about the relative viability ([17]; first compound 0.8 µM) of the same compound?
**A.** 0.908

**Q.** And the relative viability ([17]; first compound 2.53 µM)?
**A.** 0.92

**Q.** And the relative viability ([17]; first compound 8 µM)?
**A.** 0.842

**Q.** What about the relative viability ([18]; first compound 0.08 µM) of the same compound?
**A.** 0.757

**Q.** What about the relative viability ([18]; first compound 0.8 µM) of the same compound?
**A.** 0.813

**Q.** And the relative viability ([18]; first compound 2.53 µM)?
**A.** 0.968

**Q.** What about the relative viability ([18]; first compound 8 µM) of the same compound?
**A.** 0.724

**Q.** What about the relative viability ([19]; first compound 0.08 µM) of the same compound?
**A.** 0.636

**Q.** And the relative viability ([19]; first compound 0.8 µM)?
**A.** 0.781

**Q.** And the relative viability ([19]; first compound 2.53 µM)?
**A.** 1.09

**Q.** And the relative viability ([19]; first compound 8 µM)?
**A.** 0.59

**Q.** And the relative viability ([20]; first compound 0.08 µM)?
**A.** 1.11

**Q.** What about the relative viability ([20]; first compound 0.8 µM) of the same compound?
**A.** 1.12

**Q.** And the relative viability ([20]; first compound 2.53 µM)?
**A.** 1.12

**Q.** And the relative viability ([20]; first compound 8 µM)?
**A.** 1.09

**Q.** And the relative viability ([21]; first compound 0.08 µM)?
**A.** 0.898

**Q.** What about the relative viability ([21]; first compound 0.8 µM) of the same compound?
**A.** 0.995

**Q.** And the relative viability ([21]; first compound 2.53 µM)?
**A.** 0.83

**Q.** What about the relative viability ([21]; first compound 8 µM) of the same compound?
**A.** 0.97

**Q.** And the relative viability ([22]; first compound 0.08 µM)?
**A.** 0.936

**Q.** And the relative viability ([22]; first compound 0.8 µM)?
**A.** 1.08

**Q.** And the relative viability ([22]; first compound 2.53 µM)?
**A.** 1.1

**Q.** What about the relative viability ([22]; first compound 8 µM) of the same compound?
**A.** 0.856
